These results are taken from US7449484B2, “Compounds” (SmithKline Beecham Corporation, priority 2000, dated 2008).

Series [1] concerns murine airpouch granuloma. Put plainly: Murine Air Pouch Granuloma Model of angiogenesis in vivo. Also on record: species or system mice. Conditions: positive control. An excerpt:
Measurement of Angiogenesis In Vivo—Murine Air Pouch Granuloma Model:
The murine airpouch granuloma model of chronic inflammation (Kimura et al., 1985, J. Pharmacobio-Dyn., 8:393-400; Colville-Nash et al., 1995, J. Pharm. and Exp. Ther., 274:1463-1472) whose disclosure is incorporated herein by reference in its entirety, is characterized by inflammatory cell influx, fibrous tissue proliferation and intense angiogenesis. […] In addition, angiogenesis can be accurately quantitated by a vascular casting method.
Day 1, mice are anesthetized using Aerrane (isoflurane) gas (5%) or other approved methods, after which 3 mls of air is injected into the dorsal subcutaneous tissue using a 27 g needle. Mice are allowed to recover. […]
When the granuloma is removed it is weighed and then dried for 3 days at 45° C. and reweighed. […] The carmine content is then determined against a carmine red standard curve (0.5 to 2 mg/ml) generated in extracted tissue from non carmine treated animals and read at 490 nm. Sample and standard values are determined typically using DeltaSoft Elisa analysis software (Biometallics Inc., Princeton, N.J.). […]
The effect of compounds on vascular density was typically measured for 6 days after induction of the granuloma. This time point has been determined to be at or near the peak of angiogenesis. […] Medroxyprogesterone had no effect on granuloma size as measured by dry weight.

As for `CCOc1ccc2cc(-c3nc(C(C)(C)C)[nH]c3-c3ccncc3)ccc2c1`, the melting point (in general, the temperature, or range, at which the solid turns liquid) is 258 to 259 °C.
medroxyprogesterone: in series [1] (measured 6 days after induction of the granuloma), the “maximum reduction (vascular density)” value was 50%. Also, in series [1] (murine air pouch granuloma), the “effect on granuloma size as measured by dry weight” value was “no effect”.
